Where “and” joins values, the source holds several entries; their conditions need not be identical. Equal entries are not always repeated.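 A five-concentration, 48-hour dose response in 96-well plates underlies each endpoint, interpolated linearly between surrounding concentrations. GI50 is the concentration that inhibits growth by half. TGI: total growth inhibition.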
Key:
Assay in all cases: inhibition of tumour cell growth, NCI panel, 48 h
[1] = test system: CAKI-1 renal
[2] = test system: COLO 205 colon
[3] = test system: HCC-2998 colon
[4] = test system: IGROV1 ovarian
[5] = test system: LOX IMVI melanoma
[6] = test system: NCI-H522 lung
[7] = test system: OVCAR-4 ovarian
[8] = test system: RXF 393 renal
[9] = test system: SK-MEL-2 melanoma
[10] = test system: BT-549 breast

SMILES | TGI [1] | TGI [2] [µM] | TGI [3] [µM] | TGI [4] [µM] | TGI [5] [µM] | TGI [6] [µM] | TGI [7] [µM] | TGI [8] [µM] | TGI [9] | TGI [10] [µM] | GI50 [10] [µM] | GI50 [1] [µM] | GI50 [2] | GI50 [3] [µM] | GI50 [4] [µM] | GI50 [5] [µM] | GI50 [9] [µM] | GI50 [7] [µM] | GI50 [8] [µM] | GI50 [6] [µM]
CCCCCc1cc(OC(=O)c2c(O)cc(OC)cc2CCCCC)cc(O)c1C(=O)O | 34.5 µM | 34.5 | 29 | 32.5 | 33.1 | 28.2 | 41.3 | 30.8 | 31.6 µM |  |  |  |  |  |  |  |  |  |  | 
CCC(C)[C@H](NC(=O)N[C@H](C)c1ccccc1)C(=O)OC (stereo partly drawn) | > 100 µM | > 100 | > 100 | > 100 | > 100 |  | > 100 |  | > 100 µM | > 100 |  |  |  |  |  |  |  |  |  | 
CC(C)(C)OC(=O)n1cc(C2CNC(=O)C23CCC(=O)N3Cc2ccccc2)c2ccccc21 (stereo not drawn) | > 100 µM | 33.4 |  | 33.6 | 44 | 35 | 36.2 | 44.8 | 33.4 µM |  |  |  |  |  |  |  |  |  |  | 
CC(C)C[C@H](NC(=O)[C@H](Cc1cccc2ccccc12)NC(=O)N1CCOCC1)B(O)O | 0.0147 µM and 0.0371 µM |  | 0.00302 | 0.0485 | 0.00304 |  | > 100 | 0.00195 | 0.00251 µM and < 0.0159 µM |  | 0.00039 | 0.00283 | 0.00482 µM and 0.015 µM | 0.00158 | 0.00408 | 0.00114 | 0.00068 |  |  | 
COc1ccc2[nH]c3c(c2c1)CCN(C)CC3 | > 100 µM | > 100 | > 100 | > 100 | > 100 |  | > 100 |  | > 100 µM |  |  |  |  |  |  |  |  |  |  | 
O=C(CSc1nc2ccccc2[nH]1)Nc1ccc(-c2nc3ccccc3s2)c(Cl)c1 | > 100 µM | 51.4 | 9.4 | 4.99 | > 100 |  | > 100 | 8.85 | > 100 µM | > 100 | 7.69 | 4.17 | 4.16 µM | 2.77 | 1.6 | 4.95 | 7.44 | 2.56 | 2.66 | 
CC(=O)c1ccc(N=Nc2ccc3nonc3c2N)cc1 | > 100 µM | > 100 | > 100 | > 100 | > 100 |  | > 100 | > 100 | > 100 µM |  |  |  |  |  |  |  |  |  |  | 
Cc1ccc(S(=O)(=O)N/C(=C\C=C\c2ccccc2)C(=O)C(C)(C)C)cc1 | > 100 µM | > 100 | > 100 | > 100 | > 100 | > 100 | > 100 | > 100 | > 100 µM |  |  |  |  |  |  |  |  |  |  | 
CC(=O)OC[C@H]1O[C@@H](O[C@H]2[C@H](OC(C)=O)C=CO[C@@H]2COC(C)=O)C(OC(C)=O)[C@H]2OC(C)(C)O[C@H]21 (stereo partly drawn) | > 100 µM | > 100 | > 100 | > 100 | > 100 | 35.7 | > 100 | > 100 |  | > 100 |  |  |  |  |  |  |  |  |  | 
CCCCOC(=O)CNC(=O)OCCCCC#CC#CCCCCOC(=O)NCC(=O)OCCCC | > 100 µM | > 100 | > 100 | > 100 | > 100 | > 100 | > 100 |  |  |  |  |  |  |  |  |  |  |  |  | 
O=C(c1ccc(Cl)cc1)c1ccc(OCC(=O)N2CCN(c3ccccc3)CC2)cc1 | > 100 µM | > 100 | > 100 | > 100 | > 100 |  | > 100 | > 100 | > 100 µM |  |  |  |  |  |  |  |  |  |  | 
CCOC(=O)/C(O)=C1\C(=O)N(C)C(=O)C1c1ccc(OC)c(OC)c1 (stereo not drawn) | > 100 µM | > 100 | > 100 | > 100 | > 100 | > 100 | > 100 | > 100 | > 100 µM |  |  |  |  |  |  |  |  |  |  | 
CC(=O)O[C@H]1CC[C@@]2(C)C(=CC[C@@H]3[C@@H]2CC[C@]2(C)C(c4cccnc4)=CC[C@@H]32)C1 | > 100 µM | > 100 | > 100 | > 100 | > 100 | > 100 | > 100 |  | > 100 µM | 17.3 | 2.96 | 8.38 | 5.1 µM | 14 | 26.7 | 6.49 | > 100 | 4.61 |  | 38.5
O=c1[nH]nc(Cc2ccccc2)n1/N=C/c1c[nH]c2ccccc12 | 81.8 µM | > 100 | > 100 | > 100 | > 100 | > 100 | > 100 |  | > 100 µM |  |  |  |  |  |  |  |  |  |  | 
COc1ccc2c(c1)O[C@@H]1C(O)Oc3cc(OC)c(OC)cc3[C@]1(O)C2=O (stereo partly drawn) | > 100 µM | > 100 |  | > 100 | > 100 | 36.5 | > 100 | > 100 | > 100 µM | 91 |  |  |  |  |  |  |  |  |  | 
C=CC(=O)N1C/C(=C\c2ccc(N(C)C)cc2)C(=O)/C(=C/c2ccc(N(C)C)cc2)C1 | > 100 µM | > 100 | > 100 | > 100 | > 100 |  | > 100 | > 100 | > 100 µM | > 100 |  |  |  |  |  |  |  |  |  | 
Cc1ccc(C(=O)N(C2CCCCC2)C2CCCCC2)cc1N=NN(C)C | 27.2 µM | 33.6 | 29.4 | 32.4 | 30.2 | 16.7 | 24 |  | 7.29 µM | 26.8 |  |  |  |  |  |  |  |  |  | 
CCN1CC(C)Cn2c(=O)[nH]c3cc(Br)cc1c32 (stereo not drawn) | > 100 µM | > 100 | > 100 | > 100 | > 100 |  | > 100 | 37.3 | > 100 µM | 56.8 |  |  |  |  |  |  |  |  |  | 
Cc1ccc(F)cc1NC(=O)O/N=C(\Cl)C(C)C | 3.09 µM | 3.74 | 34.4 | 33.6 | 4.79 | 2.13 | 33.1 | 9.51 | 35.4 µM |  |  |  |  |  |  |  |  |  |  | 
Oc1ccc(Cl)cc1C1=N/C(=N\CN2CCN(C/N=C3/N=C(c4cc(Cl)ccc4O)CC(c4ccccc4)N3)CC2)NC(c2ccccc2)C1 (stereo not drawn) | 97.6 µM | > 100 | > 100 | > 100 | > 100 |  | 78 | 43.3 | > 100 µM | > 100 |  |  |  |  |  |  |  |  |  | 
CN(C)C(=S)N/N=C\C=N/NC(=S)N(C)C | > 100 µM | > 100 | > 100 | > 100 | > 100 | > 85.3 | > 100 |  | > 100 µM | > 100 |  |  |  |  |  |  |  |  |  | 

From PubChem BioAssay (NCI)
